Assay results reported in the supplement of paper PMC10307832.

Key:
Assay in all cases: relative viability (nuclei count vs DMSO), 5 days (fraction); higher = more cells survive
[1] = compound: COc1cc2/c(=N/c3ccc(Br)cc3F)nc[nH]c2cc1OCC1CCN(C)CC1 [Vandetanib] + Nc1nc2[nH]cc(CCc3ccc(C(=O)N[C@@H](CCC(=O)O)C(=O)O)cc3)c2c(=O)[nH]1 [Pemetrexed] (partner 0.2 µM)
In short: (§1)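 Relative viability was taken as the ratio of nuclei in treated wells to nuclei in vehicle wells. Lung cancer cell lines in 1536-well plates received compounds by pin tool one day after seeding, either one drug alone or a fixed anchor-drug dose plus five library-drug doses (not always all listed) in √10 steps. Nuclei were counted on 4× images after 5 days of treatment, and values are medians of duplicate plates.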

[2] = compound: COc1cc(N2CCC(N3CCN(C)CC3)CC2)ccc1Nc1ncc(Cl)c(Nc2ccccc2S(=O)(=O)C(C)C)n1 [NVP-TAE684] + CC(C)C[C@H](NC(=O)[C@H](Cc1ccccc1)NC(=O)c1cnccn1)B(O)O [Bortezomib] (partner 0.002 µM)
In short: as §1

[3] = compound: C1=CC=C2C(=C1)N=C(S2)C(C#N)C3=NC(=NC=C3)NCCC4=CN=CC=C4 + Cc1nc(Nc2ncc(C(=O)Nc3c(C)cccc3Cl)s2)cc(N2CCN(CCO)CC2)n1 [Dasatinib] (partner 0.075 µM)
In short: as §1

[4] = compound: COc1cc2/c(=N/c3ccc(Br)cc3F)nc[nH]c2cc1OCC1CCN(C)CC1 [Vandetanib] + Cc1cc(Nc2cc(N3CCN(C)CC3)nc(Sc3ccc(NC(=O)C4CC4)cc3)n2)n[nH]1 [Tozasertib] (partner 0.1 µM)
In short: as §1

Cell Line: UMC-11
- relative viability ([1]; first compound 0.02 µM): 0.764
- relative viability ([1]; first compound 0.06325 µM): 0.799
- relative viability ([1]; first compound 0.2 µM): 0.801
- relative viability ([1]; first compound 0.6325 µM): 0.721
- relative viability ([1]; first compound 2 µM): 0.667
- relative viability ([2]; first compound 0.2 µM): 0.642
- relative viability ([2]; first compound 0.6325 µM): 0.97
- relative viability ([2]; first compound 2 µM): 0.393
- relative viability ([3]; first compound 0.005 µM): 0.257
- relative viability ([3]; first compound 0.01581 µM): 0.481
- relative viability ([3]; first compound 0.05 µM): 0.447
- relative viability ([3]; first compound 0.1581 µM): 0.583
- relative viability ([3]; first compound 0.5 µM): 0.379
- relative viability ([4]; first compound 0.02 µM): 0.204
- relative viability ([4]; first compound 0.06325 µM): 0.187
- relative viability ([4]; first compound 0.2 µM): 0.175
- relative viability ([4]; first compound 0.6325 µM): 0.189
- relative viability ([4]; first compound 2 µM): 0.205
